Eight molecules from ChEMBL document CHEMBL4627380, “Phaeosphaones: Tyrosinase Inhibitory Thiodiketopiperazines from an Endophytic Phaeosphaeria fuckelii” (J Nat Prod, 2020) can be followed below.

Activity calls are given as the source filed them. The calls are words filed in the database; no cut-off is given here.

The species entered for assay [1] is Homo sapiens. Briefly: Inhibition of alpha-glucosidase (unknown origin) at 100 uM.
Assay [2] addresses Mushroom tyrosinase (Agaricus bisporus, UniProt O42713+Q00024+C7FF04+C7FF05). Kind of assay: Inhibition of mushroom tyrosinase using L-Dopa as substrate preincubated for 10 mins followed by substrate addition and measured after 5 mins.

As to `CO[C@]1([C@H](SC)c2c[nH]c3ccccc23)NC(=O)[C@@](SC)(C(C)C)N(C)C1=O`, the inhibition result in assay [1] was “inactive”.
In general, IC50 refers to the midpoint of a concentration-inhibition curve. Molecule `CS[C@]1(Cc2c[nH]c3ccccc23)NC(=O)[C@](CO)(SC)N(C)C1=O` [CHETOSEMINUDIN B] came in with an IC50 in assay [2] of 31.7 µM. For the same molecule, the inhibition result in assay [1] was “inactive”.
Take `CS[C@]1(Cc2c[nH]c3ccccc23)NC(=O)[C@@](SC)(C(C)C)NC1=O`: the inhibition result in assay [1] was “inactive”.
In assay [2], `CC(C)[C@@]12SS[C@]3(C(=O)N1C)[C@@H](O)[C@]1(c4c[nH]c5ccccc45)c4ccccc4N[C@@H]1N3C2=O` yielded an IC50 of 28.4 µM. For the same molecule, the inhibition entry in assay [1] was “inactive”.
Take `CC(C)[C@]12SS[C@]([C@@H](O)c3c[nH]c4ccccc34)(CC1=O)C(=O)N2C`: in assay [1], the inhibition entry was “inactive”.
Same read-out and setting: for `CS[C@H](c1c[nH]c2ccccc12)[C@]1(O)NC(=O)[C@@](SC)(C(C)C)N(C)C1=O` the value was “inactive”.
In the case of `CC(C)[C@@H]1NC(=O)[C@@H]2C[C@@]3(O)c4ccccc4N[C@H]3N2C1=O`, in assay [1], the inhibition result was “inactive”.
As to `CO[C@@]1([C@H](SC)c2c[nH]c3ccccc23)NC(=O)[C@@](SC)(C(C)C)N(C)C1=O`, the IC50 in assay [2] was 33.2 µM. For the same molecule, the inhibition result in assay [1] was “inactive”.
